Experimental data taken from US20150359789A1, “METHODS FOR TREATING PRURITUS” (TREVI THERAPEUTICS, INC., priority 2014, published 2015).
Counter-ions that a name gives are not always drawn.

Test: Oral pharmacokinetics of nalbuphine HCl solution versus tablets, fed and fasted, across studies
Conditions: human, plasma

Oc1ccc2c3c1O[C@H]1[C@@H](O)CC[C@@]4(O)[C@@H](C2)N(CC2CCC2)CC[C@]314 [nalbuphine, 17-(cyclobutylmethyl)-4,5α-epoxymorphinan-3,6α,14-triol, hydrochloride]
Tmax: 0.5 to 1 h | half-life: 6.87 to 6.99 h
